Laboratory results: publication PMC4502414, “Transforming berberine into its intestine-absorbable form by the gut microbiota” (Scientific Reports, 2015)
Entries after “also recorded” stand apart in the source; their conditions may differ.

What was measured:
[1] = Plasma pharmacokinetics after oral dhBBR or BBR in rats; type: in vivo, SD rats; conditions: oral dhBBR 200 mg/kg
Procedure: The plasma (100 μl) was precipitated with 100 μl of acetonitrile after addition of 10 μl of the internal standard. BBR served as a control in the study. The plasma concentrations of BBR and dhBBR were determined using LC-MS/MS 8040 and LC-MS/MS 8050.

[2] = Excretion of BBR, dhBBR and other BBR metabolites in rat feces, urine and bile after oral BBR; type: in vivo, SD rats
Procedure: For the analysis of the in vivo intestinal metabolites of BBR, six SD rats were orally treated with BBR (200 mg/kg), and their feces were collected 0, 6, 12, 24, 36, 48, and 72 h after treatment. The method used for the preparation of the feces was reported previously. An aliquot of 1 μl was injected into the GC-MS instrument. The level of dhBBR in feces was measured and calculated based on the standard curve obtained with the in vitro intestinal bacteria incubation mixture.

MAO-B = target: T1, MAO-B (Rattus norvegicus, UniProt P19643); conditions: intestinal homogenate, 30 min, no inhibitor
T1 sequence (P19643 1-520): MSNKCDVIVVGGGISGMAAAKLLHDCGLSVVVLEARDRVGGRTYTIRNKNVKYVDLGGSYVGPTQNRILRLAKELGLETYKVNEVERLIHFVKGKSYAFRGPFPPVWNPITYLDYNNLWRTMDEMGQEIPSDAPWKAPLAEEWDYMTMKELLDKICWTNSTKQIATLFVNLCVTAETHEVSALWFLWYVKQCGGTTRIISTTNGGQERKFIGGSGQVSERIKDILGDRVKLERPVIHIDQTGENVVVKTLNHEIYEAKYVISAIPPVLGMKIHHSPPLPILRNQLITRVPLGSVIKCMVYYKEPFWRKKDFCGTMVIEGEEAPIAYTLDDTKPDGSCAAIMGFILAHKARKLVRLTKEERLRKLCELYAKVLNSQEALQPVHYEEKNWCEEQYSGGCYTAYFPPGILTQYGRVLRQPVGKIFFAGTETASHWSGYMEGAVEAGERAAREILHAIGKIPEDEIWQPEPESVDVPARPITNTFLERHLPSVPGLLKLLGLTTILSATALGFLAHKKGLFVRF

[3] = Effect of heat inactivation and vitamin C on dhBBR-to-BBR transformation in rat small intestine homogenate; type: in vitro ADME; conditions: homogenate boiled for 2 min
Procedure: The rats (n = 3) were sacrificed to obtain fresh small intestine homogenate. The homogenate was then boiled for 2 min to inactivate all of the enzymes. After pre-incubation at 37 °C for 2 min, 5 μl of dhBBR (10 mM, dissolved in DMSO) was added into the inactivated homogenate, and fresh homogenate (active one) was used as a reference. The sample was mixed thoroughly and centrifuged at 16,000 g for 5 min. The supernatant was transferred into new tubes, treated with 500 μl of acetonitrile, and then centrifuged. Twenty-microliter aliquots were used for the HPLC analysis.
To examine the oxidative reaction, 100 μl of vitamin C was pre-incubated with the inactivated homogenate; the final concentrations of vitamin C were 95, 9.5 and 0.95 mM. The superoxide anion in the sample was detected with an O2^− ELISA kit (Beijing Biolab Co., Ltd., Beijing, China; lot: 201404) following the manufacturer’s instructions.

LDLR = assay: Drug effect on hepatic LDLR gene expression in HepG2 cells; type: cell-based, human; conditions: 12 h
Procedure: The HepG2 human hepatoma cell line was obtained from the American Tissue Culture Collection (ATCC, USA) and grown in Eagle’s Minimum Essential Medium (GIBCO) supplemented with 10% fetal bovine serum (GIBCO) at 37 °C. For the drug efficacy test, HepG2 cells were cultured for 24 h and then treated with BBR or dhBBR for 12 h. The compounds were freshly prepared in medium prior to use.
The total cellular RNAs were isolated with the SV Total RNA Isolation System (Promega, Madison, WI, USA) following the vendor’s instructions. The total RNAs were reversely transcribed into cDNAs, and quantitative real-time PCR was performed using a 2-Step RT-qPCR System (Promega, Madison, WI, USA), with GAPDH as an internal control. The normalized LDLR mRNA expression levels were plotted as fold levels compared with the untreated control. The following primers were used: LDLR forward, […]; LDLR reverse, […]; GAPDH forward, […]; and GAPDH reverse, […].

[4] = Distribution of dhBBR in organs of SD rats orally treated with BBR; type: in vivo; conditions: 24 h after oral BBR 200 mg/kg
Procedure: Three segments of small intestine (duodenum, jejunum and ileum) were collected 0, 6, 12, 24, 36, and 48 h after the oral administration of BBR in SD rats. The small intestine tissues were washed thoroughly with saline and dried. After being weighed, the samples were homogenized with mixed solution (ethanol: water, 1:1) at a ratio of 1:2 [w(g)/v(ml)]. The samples were centrifuged at 7,500 g for 10 min, and the supernatant was collected and evaporated to dryness in a water bath at 40 °C using a rotary evaporator. The residues of the tissue extraction were dissolved in methanol (250 μl) and vortex-mixed for 5 min. The tissue solution was then centrifuged (at 14,000 g for 5 min), and the supernatant was passed through a 0.22-μm filter. An aliquot of 1 μl of the supernatant was injected into the GC-MS instrument, and a 10-μl aliquot was used for LC-MS/MS analysis. The level of dhBBR was calculated based on the standard curve, and BBR and other metabolites was quantified using the method described above.

[5] = Transformation of dhBBR in pooled human intestinal microsomes (HIMs); type: in vitro ADME
Procedure: The mixture was incubated at 37 °C with exposure to air for 2, 5 and 10 min and was terminated by the addition of 200 μl of ice-cold acetonitrile. Then, 20 μl of the internal standard was added to the mixture, and the mixture was centrifuged at 14,000 g for 5 min. Fifty microliters of the supernatant was injected into the HPLC instrument for analysis. The control samples were incubated under the same conditions but without HIMs.

[6] = 72-h cumulative fecal excretion of BBR and dhBBR in pseudo germ-free (PGF) and conventional rats; type: in vivo, SD rats; conditions: oral BBR 200 mg/kg
Procedure: Male SD rats (180–200 g) were orally treated with cefadroxil (100 mg/kg), terramycin (300 mg/kg) and erythromycin (300 mg/kg) twice a day for 3 days, and pharmacokinetic examination was performed 2 days after final administration. The colon contents of the rats were collected on the first and third days after the final treatment with antibiotics, and the germ-free status was confirmed by culturing fecal samples aerobically on a nutrient agar culture medium. Fecal samples from non-antibiotic-exposed rats served as control samples. Before oral administration of a single dose of BBR (200 mg/kg), the PGF rats were fasted overnight with free access to water. […] The samples were stored at −20 °C for further analysis.

COc1ccc2c(c1OC)CN1CCc3cc4c(cc3C1=C2)OCO4 [dhBBR, dihydroberberine]
AUC(0-t) ([1]; SD, rat, plasma, po, 200 mg/kg, Fig. 3b curve 2, read-out: AUC(0-t) of dhBBR in plasma): 48.9 ng·h/mL | Cmax ([1]; SD, rat, plasma, po, 200 mg/kg, Fig. 3b curve 2, read-out: Cmax of dhBBR in plasma): 10.2 ng/mL | dhBBR level in plasma [1]: less than 10 ng/ml | time of peak amount of dhBBR in feces ([2]; after oral BBR): 12 to 24 h | detection of dhBBR in rat excretions ([2]; oral BBR, 72-h period, urine, bile and feces): detected only in feces | dhBBR-to-BBR reversion (MAO-B): complete | effect of heat inactivation of homogenate on dhBBR-to-BBR reversion [3]: did not reduce the dhBBR-to-BBR reversion | up-regulation of LDLR mRNA expression compared with BBR (LDLR): Reduced effect; also recorded: much lower than that of BBR | organs in which dhBBR was detected [4]: detected in intestinal tissue only | dhBBR-to-BBR reversion [5]: very rapidly | 72-h-cumulative dhBBR in feces, % of the giving amount of BBR ([6]; PGF rats): 6.09% | 72-h-cumulative dhBBR in feces, % of the giving amount of BBR ([6]; untreated (conventional) rats): 18.21%
